Measured values published in PMC5568477 (Bioorganic & medicinal chemistry letters, 2017).
pKd: −log10 of the molar value.

Target: T1, olfactomedin domain of human myocilin (myoc-OLF) (Homo sapiens, UniProt Q99972)
T1 sequence (Q99972 244-503 limits assumed): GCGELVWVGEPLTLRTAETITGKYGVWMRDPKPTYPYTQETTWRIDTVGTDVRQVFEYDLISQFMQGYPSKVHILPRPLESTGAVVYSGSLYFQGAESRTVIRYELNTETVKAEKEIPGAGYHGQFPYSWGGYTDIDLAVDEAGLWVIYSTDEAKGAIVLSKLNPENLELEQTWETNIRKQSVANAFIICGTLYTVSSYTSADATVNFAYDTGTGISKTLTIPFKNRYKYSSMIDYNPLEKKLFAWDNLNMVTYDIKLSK
Assay: Thermal shift assay by differential scanning fluorimetry
Format: binding

[1] = initial round of screening, DSF, 5 μM protein, protein alone Tm 49.83
[2] = second round of screening, seeded with NSC37433

COc1cc(C(=O)C(=O)c2ccc(O)c(OC)c2)ccc1O [NSC16722]
Tm [1]: 50.74 °C

O=C1c2ccccc2C(=O)C1C(c1ccc([N+](=O)[O-])cc1)C1C(=O)c2ccccc2C1=O [NSC643148]
Tm [1]: 51.85 °C

O=C(Nc1ccc(Oc2ccc(NC(=O)Nc3ccc([N+](=O)[O-])cc3)cc2)cc1)Nc1ccc([N+](=O)[O-])cc1 [NSC80735]
Tm [2]: 62.86 °C

Cc1ccc(C(C)C)cc1NC(=O)Nc1ccc([N+](=O)[O-])cc1 [NSC46492]
Tm [2]: 57.96 °C

COc1cccc(NC(S)=Nc2ccc(O)cc2)c1 [NSC201634]
increase in the affinity compared to the best hit from the initial round (NSC37433) (second round best hit vs NSC37433): ~ 10,000 fold
Tm [2]: 83.79 °C

O=C(Cn1ccc(=O)[nH]c1=O)Nc1ccc(C(=O)O)c(O)c1 [NSC93033]
Tm [1]: 51.49 °C

O=C(/C=C/c1ccc(O)c(O)c1)c1ccccc1O [NSC37433]
Tm [1]: 66.27 °C

Nc1nc(N)c(/N=N/c2ccc(C(=O)O)cc2)c(N)n1 [NSC408734]
Tm [1]: 51.61 °C

CN(C)c1ccc(/C=C/C(=O)c2cc(Cl)ccc2O)cc1 [NSC11437]
Tm [1]: 51.33 °C

Cc1cc(N(CCCl)CCCl)ccc1/C=N/NC(=O)Cc1cc(=O)oc2cc(O)ccc12 [NSC79688]
pKd: 5.70
Tm [1]: 51.43 °C
